In ChEMBL document CHEMBL1126848, “Concepts and progress in the development of peptide mimetics” (J Med Chem, 1993) one finds Concentration data, which are given here for 1 molecule.

The subject of assay [1] is Mus musculus. As to the kind of experiment: Concentration required toTRH reduced mean latencies mimetics in mice after i.p. administration using the Morris water maze test; 0.003-3. Type of assay: functional, organism-based.
Assay [2] relates to Mus musculus. Description: Concentration required toTRH reduced mean latencies mimetics in mice after p.o. administration using the Morris water maze test; 0.003-3. The assay is classed as functional, organism-based.

Turning to `NC(=O)C[C@@H]1C[C@H](Cc2c[nH]cn2)C[C@H](C[C@@H]2CCC(=O)N2Cc2ccccc2)C1`, the Concentration in the assay with Mus musculus [1] and in the assay on Mus musculus [2] was 0.003 mg/kg each time.
